Patent US8796305B2 (Bayer Pharma Aktiengesellschaft, priority 2012, dated 2014)
Where a name gives a salt, the structure may show the parent alone.

These compounds were tested against T1, recombinant guanylate cyclase reporter cell line (Rattus norvegicus, UniProt P19686+P20595) (assay: Action on recombinant guanylate cyclase reporter cell line). Conditions: representative MEC values.
T1 construct: expressed in transfected cells
T1 sequence (P20595 1-619): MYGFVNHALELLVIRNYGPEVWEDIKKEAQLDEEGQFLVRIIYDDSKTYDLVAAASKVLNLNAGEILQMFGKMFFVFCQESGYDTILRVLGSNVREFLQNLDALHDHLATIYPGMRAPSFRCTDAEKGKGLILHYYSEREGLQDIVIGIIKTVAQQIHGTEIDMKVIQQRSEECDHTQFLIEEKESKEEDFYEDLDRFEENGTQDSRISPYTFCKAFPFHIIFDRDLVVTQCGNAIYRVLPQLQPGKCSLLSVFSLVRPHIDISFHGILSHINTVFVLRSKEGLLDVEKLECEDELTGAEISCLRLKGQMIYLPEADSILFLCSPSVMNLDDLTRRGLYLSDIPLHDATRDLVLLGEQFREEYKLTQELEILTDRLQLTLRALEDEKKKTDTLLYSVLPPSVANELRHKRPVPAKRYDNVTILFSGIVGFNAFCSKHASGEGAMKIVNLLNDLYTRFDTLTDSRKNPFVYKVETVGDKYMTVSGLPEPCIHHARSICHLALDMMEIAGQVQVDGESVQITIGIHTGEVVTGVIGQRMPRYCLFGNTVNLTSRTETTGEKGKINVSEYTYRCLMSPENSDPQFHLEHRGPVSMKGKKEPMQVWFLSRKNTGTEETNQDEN
T1 sequence (P19686 1-690): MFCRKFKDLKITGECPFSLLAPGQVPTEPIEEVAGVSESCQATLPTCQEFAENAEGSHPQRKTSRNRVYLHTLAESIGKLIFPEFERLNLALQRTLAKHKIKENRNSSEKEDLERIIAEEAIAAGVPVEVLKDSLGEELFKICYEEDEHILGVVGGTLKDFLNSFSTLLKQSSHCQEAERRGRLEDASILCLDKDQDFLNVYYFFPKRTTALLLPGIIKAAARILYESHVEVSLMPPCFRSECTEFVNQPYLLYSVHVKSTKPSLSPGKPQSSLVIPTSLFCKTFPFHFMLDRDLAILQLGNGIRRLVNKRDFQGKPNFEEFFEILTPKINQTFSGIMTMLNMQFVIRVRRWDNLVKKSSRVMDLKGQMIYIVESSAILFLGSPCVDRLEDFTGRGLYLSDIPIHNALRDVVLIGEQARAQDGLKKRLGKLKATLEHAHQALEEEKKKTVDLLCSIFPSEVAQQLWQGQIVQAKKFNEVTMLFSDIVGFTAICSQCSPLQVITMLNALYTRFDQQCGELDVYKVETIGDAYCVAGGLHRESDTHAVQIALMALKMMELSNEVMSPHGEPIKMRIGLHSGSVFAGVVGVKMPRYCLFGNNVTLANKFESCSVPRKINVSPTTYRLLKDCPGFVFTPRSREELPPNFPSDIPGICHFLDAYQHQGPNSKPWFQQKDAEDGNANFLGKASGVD
Type: cell-based
Experimental: B-2. Action on Recombinant Guanylate Cyclase Reporter Cell Line
The cellular action of the compounds according to the invention is determined on a recombinant guanylate cyclase reporter cell line, as described in F. Wunder et al., Anal. Biochem. 339, 104-112 (2005).
Representative MEC values (MEC=minimal effective concentration) for the compounds according to the invention are shown in the following table: […]

**Q.** `Cc1nc2c(OCC3CCCCC3)cccn2c1C(=O)NCCCCCCCC(=O)O` [Example 20, 8-({[8-(Cyclohexylmethoxy)-2-methylimidazo[1,2-a]pyridin-3-yl]carbonyl}amino)octanoic acid] was tested. Which “MEC (minimal effective concentration)” value did it give?
**A.** 0.065 µM

**Q.** With `COC(=O)CCNC(=O)c1c(C)nc2c(OCc3c(F)cccc3F)cccn12` [Example 7, Methyl N-({8-[(2,6-difluorobenzyl)oxy]-2-methylimidazo[1,2-a]pyridin-3-yl}carbonyl)-beta-alaninate] as the compound, how does the “MEC (minimal effective concentration)” value read?
**A.** 1.0 µM

**Q.** `COC(=O)CCCCCCCNC(=O)c1c(C)nc2c(OCC3CCCCC3)cccn12` [Example 16] was tested. Which “MEC (minimal effective concentration)” value did it give?
**A.** 0.3 µM

**Q.** Which “MEC (minimal effective concentration)” value does the source give for `CCCCC(NC(=O)c1c(C)nc2c(OCc3c(F)cccc3F)cccn12)C(=O)OC` (single isomer, unassigned; enantiomer a) [Example 18, ent-Methyl N-({8-[(2,6-difluorobenzyl)oxy]-2-methylimidazo[1,2-a]pyridin-3-yl}carbonyl)-norleucinate (Enantiomer A)] here?
**A.** 0.3 µM

**Q.** Which “MEC (minimal effective concentration)” value does the source give for `COC(=O)CC(NC(=O)c1c(C)nc2c(OCc3c(F)cccc3F)cccn12)C(F)(F)F` (racemic) [Example 17, rac-Methyl 3-[({8-[(2,6-difluorobenzyl)oxy]-2-methylimidazo[1,2-a]pyridin-3-yl}carbonyl)-amino]-4,4,4-trifluorobutanoate] here?
**A.** 1.0 µM

**Q.** With `COC(=O)C(CC(F)(F)F)NC(=O)c1c(C)nc2c(OCc3c(F)cccc3F)cccn12` (racemic) [Example 9, rac-Methyl 2-[({8-[(2,6-difluorobenzyl)oxy]-2-methylimidazo[1,2-a]pyridin-3-yl}carbonyl)amino]-4,4,4-trifluorobutanoate] as the compound, how does the “MEC (minimal effective concentration)” value read?
**A.** 3.0 µM

**Q.** With `COC(=O)C(CCCC(F)(F)F)NC(=O)c1c(C)nc2c(OCc3c(F)cccc3F)cccn12` (racemic) [Example 11, rac-Methyl N-({8-[(2,6-difluorobenzyl)oxy]-2-methylimidazo[1,2-a]pyridin-3-yl}carbonyl)-6,6,6-trifluoronorleucinate] as the compound, how does the “MEC (minimal effective concentration)” value read?
**A.** 0.3 µM

**Q.** `COC(=O)CC(C)NC(=O)c1c(C)nc2c(OCc3c(F)cccc3F)cccn12` (racemic) [Example 4, rac-Methyl 3-[({8-[(2,6-difluorobenzyl)oxy]-2-methylimidazo[1,2-a]pyridin-3-yl}carbonyl)amino]butanoate] was tested. Which “MEC (minimal effective concentration)” value did it give?
**A.** 1.0 µM

**Q.** How did the “MEC (minimal effective concentration)” value turn out when `COC(=O)C(NC(=O)c1c(C)nc2c(OCc3c(F)cccc3F)cccn12)c1ccc(F)cc1` (racemic) [Example 1, rac-Methyl [({8-[(2,6-difluorobenzyl)oxy]-2-methylimidazo[1,2-a]pyridin-3-yl}carbonyl)amino]-(4-fluorophenyl)acetate] was run?
**A.** 0.3 µM

**Q.** `CCCCC(NC(=O)c1c(C)nc2c(OCc3c(F)cccc3F)cccn12)C(=O)OC` (racemic) [Example 8, rac-Methyl N-({8-[(2,6-difluorobenzyl)oxy]-2-methylimidazo[1,2-a]pyridin-3-yl}carbonyl)norleucinate] was tested. Which “MEC (minimal effective concentration)” value did it give?
**A.** 1.0 µM

**Q.** With `COC(=O)C(NC(=O)c1c(C)nc2c(OCc3c(F)cccc3F)cccn12)c1ccc(Cl)cc1` (racemic) [Example 2, rac-Methyl (4-chlorophenyl)[({8-[(2,6-difluorobenzyl)oxy]-2-methylimidazo[1,2-a]pyridin-3-yl}carbonyl)amino]acetate] as the compound, how does the “MEC (minimal effective concentration)” value read?
**A.** 0.3 µM

**Q.** How did the “MEC (minimal effective concentration)” value turn out when `COC(=O)C(CCCC(F)(F)F)NC(=O)c1c(C)nc2c(OCc3c(F)ccc(F)c3F)cc(C)cn12` (racemic) [Example 14, rac-Methyl N-({2,6-dimethyl-8-[(2,3,6-trifluorobenzyl)oxy]imidazo[1,2-a]pyridin-3-yl}carbonyl)-6,6,6-trifluoronorleucinate] was run?
**A.** 0.3 µM

**Q.** Which “MEC (minimal effective concentration)” value does the source give for `COC(=O)C(CCCC(F)(F)F)NC(=O)c1c(C)nc2c(OCc3c(F)cccc3F)cc(C)cn12` (racemic) [Example 12, rac-Methyl N-({8-[(2,6-difluorobenzyl)oxy]-2,6-dimethylimidazo[1,2-a]pyridin-3-yl}carbonyl)-6,6,6-trifluoronorleucinate] here?
**A.** 0.3 µM

**Q.** With `COC(=O)CCCCCCCNC(=O)c1c(C)nc2c(OCc3c(F)cccc3F)cccn12` [Example 15, Methyl 8-[({8-[(2,6-difluorobenzyl)oxy]-2-methylimidazo[1,2-a]pyridin-3-yl}carbonyl)amino]octanoate] as the compound, how does the “MEC (minimal effective concentration)” value read?
**A.** 1.0 µM

**Q.** Which “MEC (minimal effective concentration)” value does the source give for `Cc1nc2c(OCC3CCCCC3)cccn2c1C(=O)NCCCCCC(=O)O` [Example 22, 6-({[8-(Cyclohexylmethoxy)-2-methylimidazo[1,2-a]pyridin-3-yl]carbonyl}amino)hexanoic acid] here?
**A.** 0.3 µM

**Q.** For `Cc1nc2c(OCc3c(F)cccc3F)cccn2c1C(=O)N[C@@H]1CCOC1=O` [Example 3, 8-[(2,6-Difluorobenzyl)oxy]-2-methyl-N-[(3R)-2-oxotetrahydrofuran-3-yl]imidazo[1,2-a]pyridine-3-carboxamide], which “MEC (minimal effective concentration)” value is on record?
**A.** 0.3 µM

**Q.** `CCCC[C@H](NC(=O)c1c(C)nc2c(OCc3c(F)cccc3F)cccn12)C(=O)O` [Example 23, N-({8-[(2,6-Difluorobenzyl)oxy]-2-methylimidazo[1,2-a]pyridin-3-yl}carbonyl)norleucine hydrochloride] was tested. Which “MEC (minimal effective concentration)” value did it give?
**A.** 2.0 µM

**Q.** Which “MEC (minimal effective concentration)” value does the source give for `CCCCC(NC(=O)c1c(C)nc2c(OCc3c(F)cccc3F)cccn12)C(=O)OC` (single isomer, unassigned; enantiomer b) [Example 19, ent-Methyl N-({8-[(2,6-difluorobenzyl)oxy]-2-methylimidazo[1,2-a]pyridin-3-yl}carbonyl)-norleucinate (Enantiomer B)] here?
**A.** 1.0 µM

**Q.** For `COC(=O)C(C)(C)NC(=O)c1c(C)nc2c(OCc3c(F)cccc3F)cccn12` [Example 5, Methyl N-({8-[(2,6-difluorobenzyl)oxy]-2-methylimidazo[1,2-a]pyridin-3-yl}carbonyl)-2-methylalaninate], which “MEC (minimal effective concentration)” value is on record?
**A.** 0.3 µM

**Q.** For `COC(=O)C(CCCC(F)(F)F)NC(=O)c1c(C)nc2c(OCc3c(F)cccc3F)cc(Cl)cn12` (racemic) [Example 13, rac-Methyl N-({6-chloro-8-[(2,6-difluorobenzyl)oxy]-2-methylimidazo[1,2-a]pyridin-3-yl}carbonyl)-6,6,6-trifluoronorleucinate], which “MEC (minimal effective concentration)” value is on record?
**A.** 0.3 µM

**Q.** How did the “MEC (minimal effective concentration)” value turn out when `COC(=O)[C@H]1CC[C@H](CNC(=O)c2c(C)nc3c(OCc4c(F)cccc4F)cc(C)cn23)CC1` [Example 24, Methyl trans-4-{[({8-[(2,6-difluorobenzyl)oxy]-2,6-dimethylimidazo[1,2-a]pyridin-3-yl}carbonyl)-amino]methyl}cyclohexanecarboxylate] was run?
**A.** 0.1 µM

**Q.** With `Cc1cc(OCc2c(F)cccc2F)c2nc(C)c(C(=O)NC[C@H]3CC[C@H](C(=O)O)CC3)n2c1` [Example 25, trans-4-{[({8-[(2,6-Difluorobenzyl)oxy]-2,6-dimethylimidazo[1,2-a]pyridin-3-yl}carbonyl)amino]methyl}cyclohexanecarboxylic acid] as the compound, how does the “MEC (minimal effective concentration)” value read?
**A.** 1.0 µM

**Q.** For `COC(=O)C(CCC(F)(F)F)NC(=O)c1c(C)nc2c(OCc3c(F)cccc3F)cccn12` (racemic) [Example 10, rac-Methyl N-({8-[(2,6-difluorobenzyl)oxy]-2-methylimidazo[1,2-a]pyridin-3-yl}carbonyl)-5,5,5-trifluoronorvalinate], which “MEC (minimal effective concentration)” value is on record?
**A.** 1.0 µM

**Q.** For `Cc1nc2c(OCc3c(F)cccc3F)cccn2c1C(=O)NCCCCCCCC(=O)O` [Example 21, 8-[({8-[(2,6-Difluorobenzyl)oxy]-2-methylimidazo[1,2-a]pyridin-3-yl}carbonyl)amino]octanoic acid], which “MEC (minimal effective concentration)” value is on record?
**A.** 0.1 µM

**Q.** How did the “MEC (minimal effective concentration)” value turn out when `COC(=O)[C@@H](C)NC(=O)c1c(C)nc2c(OCc3c(F)cccc3F)cccn12` [Example 6, Methyl N-({8-[(2,6-difluorobenzyl)oxy]-2-methylimidazo[1,2-a]pyridin-3-yl}carbonyl)-D-alaninate] was run?
**A.** 3.0 µM
